Reference: US8710045B2, “Agents for preventing and treating disorders involving modulation of the ryanodine receptors” (The Trustees of Columbia University in the City of New York, priority 2004, dated 2014)
Like-named read-outs stand apart in the source and are kept apart here.

Tests used:
L-type Ca2+ channels = target: T1, L-type Ca2+ channels (Mus musculus, UniProt Q01815); assay: L-type Ca2+ channel current, whole-cell patch clamp in isolated mouse cardiomyocytes; assay type: cell-based; conditions: Ba2+ as charge carrier
T1 construct: currents through L-type Ca^2+ channels in isolated mouse cardiomyocytes are recorded; endogenous in cells; host or cells: isolated mouse cardiomyocytes
Experimental: The final pellets are pooled and resuspended in imidazole buffer (final concentration≈10 μg/μl). […] Immunoblots are developed using an anti-FKBP antibody (1:3,000 dilution). The amount of rebinding is quantified using densitometry of Western blots and is compared to the amount of FKBP associated with RyR in non-phosphorylated SR. […] K2ATP, 5; HEPES, 10; aspartic acid, 50; pH 7.4 (CsOH). […] Drugs are applied by a local solution changer and reach the cell membrane within 1 s.

hERG = hERG (Homo sapiens, UniProt Q12809); assay: hERG current, manual whole-cell patch clamp in hERG-transfected HEK 293 cells (Example 5); assay type: cell-based; design: expressed in transfected cells; host or cells: HEK 293; conditions: human, HEK 293 cells stably transfected with hERG cDNA
Chain of hERG (Q12809 whole entry, the tested form may be a part): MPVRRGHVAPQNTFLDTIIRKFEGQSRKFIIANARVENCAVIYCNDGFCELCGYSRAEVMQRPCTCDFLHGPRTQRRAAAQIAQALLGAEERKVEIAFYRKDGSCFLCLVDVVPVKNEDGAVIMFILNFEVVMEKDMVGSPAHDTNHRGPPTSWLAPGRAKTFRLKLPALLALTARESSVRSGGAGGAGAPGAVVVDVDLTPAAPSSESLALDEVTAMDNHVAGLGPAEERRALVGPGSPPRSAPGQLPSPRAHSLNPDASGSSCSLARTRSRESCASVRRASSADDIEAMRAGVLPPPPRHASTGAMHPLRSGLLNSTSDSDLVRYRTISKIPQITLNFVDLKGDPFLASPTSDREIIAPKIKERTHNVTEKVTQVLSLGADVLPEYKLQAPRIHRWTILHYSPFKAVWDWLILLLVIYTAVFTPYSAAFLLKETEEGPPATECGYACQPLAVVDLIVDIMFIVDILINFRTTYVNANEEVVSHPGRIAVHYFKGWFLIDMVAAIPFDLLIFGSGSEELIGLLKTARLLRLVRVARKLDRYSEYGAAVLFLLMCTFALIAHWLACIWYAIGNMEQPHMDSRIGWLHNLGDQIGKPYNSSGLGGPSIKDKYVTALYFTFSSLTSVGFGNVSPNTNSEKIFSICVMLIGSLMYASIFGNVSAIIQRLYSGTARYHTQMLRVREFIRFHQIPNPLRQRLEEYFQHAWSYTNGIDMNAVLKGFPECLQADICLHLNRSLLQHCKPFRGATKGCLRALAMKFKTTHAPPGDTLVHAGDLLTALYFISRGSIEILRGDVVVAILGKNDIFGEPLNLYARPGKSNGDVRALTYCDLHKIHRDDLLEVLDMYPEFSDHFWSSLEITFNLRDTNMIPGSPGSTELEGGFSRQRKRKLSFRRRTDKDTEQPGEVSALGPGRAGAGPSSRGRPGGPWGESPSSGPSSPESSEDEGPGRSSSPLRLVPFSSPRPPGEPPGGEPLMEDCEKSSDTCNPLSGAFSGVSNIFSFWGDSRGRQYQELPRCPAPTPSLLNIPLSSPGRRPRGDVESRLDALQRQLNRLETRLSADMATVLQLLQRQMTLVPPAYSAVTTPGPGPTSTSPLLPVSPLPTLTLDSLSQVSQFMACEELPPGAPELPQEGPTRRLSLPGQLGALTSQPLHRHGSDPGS
Experimental: (§1) Electrophysiological recordings (using the whole-cell patch clamp method) were performed at room temperature (18° C.-24° C.). Each cell acted as its own control. The effect of ARM0036 was evaluated at two concentrations: 10 and 100 μM. Each concentration was tested in at least three cells (n≧3). 90 nM Cisapride (commercially available from TOCRIS Bioscience) was used as a positive control for hERG blockade. For recording, cells were transferred to the recording chamber and superfused with vehicle control solution. The patch pipette solution for whole cell recording contained 130 mM potassium aspartate, 5 mM MgCl2, 5 mM EGTA, 4 mM ATP and 10 mM HEPES. The pH was adjusted to 7.2 with KOH. The pipette solution was prepared in batches, aliquoted, and stored frozen. A fresh aliquot was thawed and used each day. Patch pipettes were made from glass capillary tubing using a P-97 micropipette puller (Sutter Instruments, Novato, Calif.). A commercial patch clamp amplifier was used for whole cell recordings. Before digitization, current records were low-pass filtered at one-fifth of the sampling frequency.

hERG current = hERG current (Homo sapiens, UniProt Q12809); assay: as above; assay type: cell-based; design: expressed in transfected cells; host or cells: HEK 293
Chain of hERG current (Q12809 whole entry): as the sequence (Q12809 whole entry, the tested form may be a part) above
Experimental: as §1

C57BL/6J mice = assay: S107 chronic exercise model: treadmill run to exhaustion; assay type: in vivo, mouse
Experimental: Mice were allowed to recover for three days prior to the initiation of exercise. Standard food and water were provided ad libitum through the experiment.
Chronic Exercise Model: The daily swimming protocol consisted of twice-daily swimming sessions separated by a one-hour rest period. After an initial conditioning regimen lasting 5 days during which the swimming sessions were increased in 10 minute increments from 40 minutes each to 80 minutes each, the swimming sessions thereafter lasted 90 minutes each. A 30 cm wide by 30 cm long opaque acrylic tank was filled with tap water to a depth of at least 20 cm. Water was circulated and warmed to 32-34° C. using a separate reservoir with heating element, thermostat, and pump. 8 mice, balanced pair-wise with respect to genotype and/or treatment group, swam at any one time in the tank.
Treadmill performance: A Columbus Instruments (Columbus, Ohio) treadmill (Model: Exer-6M Treadmill with Treadmill Shock Detection Unit) with 6 lanes was used to run the mice. Mice were placed in their respective lanes with the shocking apparatus turned off and allowed to adjust to the surroundings for 10 minutes. The forward half of the treadmill was covered with aluminum foil to block out light and a desk lamp illuminated the shocking area at the rear of the treadmill. After the adjustment period, the treadmill was set to 10 meters/min, and the mice were trained to run with gentle prodding for 6 minutes. The electric current was then turned on, and the number of shocks delivered during the next two three minute intervals (training period) were recorded. The shock counter was then reset and visits to the shocking area and shocks delivered to each mouse were recorded at three-minute intervals until the end of the experiment. At regular intervals, the speed of the treadmill was ramped up from the initial 10 m/min to 24 m/min. The speed was increased no more than 2 m/min every 6 minutes. Task failure was defined when a mouse could not continue running despite gentle prodding.
Age and sex-matched WT mice were randomized to receive osmotic pumps containing either S107 or vehicle. […] Exercise capacity was assessed once a week by a level treadmill run to exhaustion during the nocturnal cycle of the mouse. The mice were not exercised on the same day as treadmill assessments. […] These studies are complicated by the training effect of repeated exercise which leads to improved performance due to enhanced musculature. Isometric force production was measured in EDL muscles in a tissue bath during field stimulation.

calpain = assay: Calpain activity in mdx mouse muscular dystrophy model during exercise; assay type: in vivo; conditions: mdx mice, 0.125 mg/kg/h for 28 days, downhill treadmill
Experimental: After treatment, the mice were subjected to downhill (14° angel) treadmill running for 30 min at 18 m/min. Immediately after the exercise, the animals were sacrificed and the skeletal muscles were harvested.
Preparation of EDL Homogenates: EDL muscles homogenates were prepared in 0.5 ml of homogenization buffer (20 mM NaF, 10 mM Tris-maleate, pH7.2+protease inhibitors). […] sarcoplasmic reticulum (CSR) fractions were obtained by centrifuging the homogenates at 50,000×g for 30 min. Homogenates were centrifuged at 4000×g for 20 min and the supernatants were centrifuged for 20 min at 10000×g. Aliquots of the homogenates were assayed for protein concentration and stored at −80° C.
Calpain Activity Assay: Calpain activity of EDL homogenates (30 μg) were measured using a Calpain Activity Assay kit (Calbiochem). The assay utilizes a synthetic calpain substrate, suc-LLVY-AMC. AMC is released upon cleavage with calpain and is measured fluorometrically. Assays are performed with both an activation and an inhibition buffer to determine specific calpain activity in the sample.

Row | Compound | block of L-type Ca2+ channel current (ICa,L) (L-type Ca2+ channels) | inhibition at 10 µM (hERG; 10 μM, read-out: Mean percent inhibition of hERG current) [%] | inhibition at 100 µM (hERG; 100 μM, read-out: Mean percent inhibition of hERG current) [%] | inhibition at 100 µM (hERG; highest concentration tested (100 μM), read-out: hERG current inhibition at the highest concentration tested) [%] | block of HERG K+ channel (IKr) (hERG current) | effect on hERG outward tail current (hERG current; 100 μM) | acute effect on WT treadmill exercise performance (C57BL/6J mice; 2.5 ug/hr osmotic pump, WT mice) | treadmill exercise capacity (time to failure) vs vehicle (C57BL/6J mice; Day 21, WT mice, p<0.05) | treadmill performance (C57BL/6J mice; mice deficient in calstabin1) | body weight (C57BL/6J mice; throughout trial) | calpain activity (calpain)
1 | COc1ccc2c(c1)CN(C(=O)C(=O)O)CCS2 [S36] | does not block | 0.7 | 0.9 | < 50 | does not block | minimally reduced |  |  |  |  | 
2 | COc1ccc2c(c1)CN(C)CCS2 [S107] |  |  |  |  |  |  | no acute effect | relatively protected against a decline in treadmill exercise capacity | failed to improve treadmill performance | did not result in a change | reduces calpain activity
